Experimental data taken from patent US20260217708A1, “FUSED BENZAZEPINE DERIVATIVES FOR USE IN THE TREATMENT OF CANCER AND EPILEPSY” (UCB BIOPHARMA SRL, priority 2023, published 2026).

Tests used:
system Xc^− [1] = molecular target: T1, system Xc^− (Homo sapiens, UniProt Q9UPY5); assay: Cystine-induced glutamate release assay; assay type: cell-based; set-up: endogenous in cells; host or cells: H4 cells; conditions: H4 cells, sodium-free HEPES buffer, 50 μM L-Cystine, 2 hours, Amplex Red glutamate readout; for IC50: read-out: pIC50 Cystine-induced glutamate release assay (converted)
T1 sequence (Q9UPY5 1-501): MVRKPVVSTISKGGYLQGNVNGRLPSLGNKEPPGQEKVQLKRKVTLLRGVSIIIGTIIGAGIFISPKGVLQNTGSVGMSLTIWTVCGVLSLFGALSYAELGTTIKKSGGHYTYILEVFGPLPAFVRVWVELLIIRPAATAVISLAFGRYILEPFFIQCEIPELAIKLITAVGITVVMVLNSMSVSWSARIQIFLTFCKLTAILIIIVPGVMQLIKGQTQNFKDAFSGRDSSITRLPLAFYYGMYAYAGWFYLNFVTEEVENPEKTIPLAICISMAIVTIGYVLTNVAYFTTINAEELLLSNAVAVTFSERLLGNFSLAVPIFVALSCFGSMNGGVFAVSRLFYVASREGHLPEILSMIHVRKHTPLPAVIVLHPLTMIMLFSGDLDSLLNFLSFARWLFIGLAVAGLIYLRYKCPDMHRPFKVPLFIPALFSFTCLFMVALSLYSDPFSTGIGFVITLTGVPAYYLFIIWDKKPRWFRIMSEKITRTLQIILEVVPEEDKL
T1 sequence (P08195 1-529 partner): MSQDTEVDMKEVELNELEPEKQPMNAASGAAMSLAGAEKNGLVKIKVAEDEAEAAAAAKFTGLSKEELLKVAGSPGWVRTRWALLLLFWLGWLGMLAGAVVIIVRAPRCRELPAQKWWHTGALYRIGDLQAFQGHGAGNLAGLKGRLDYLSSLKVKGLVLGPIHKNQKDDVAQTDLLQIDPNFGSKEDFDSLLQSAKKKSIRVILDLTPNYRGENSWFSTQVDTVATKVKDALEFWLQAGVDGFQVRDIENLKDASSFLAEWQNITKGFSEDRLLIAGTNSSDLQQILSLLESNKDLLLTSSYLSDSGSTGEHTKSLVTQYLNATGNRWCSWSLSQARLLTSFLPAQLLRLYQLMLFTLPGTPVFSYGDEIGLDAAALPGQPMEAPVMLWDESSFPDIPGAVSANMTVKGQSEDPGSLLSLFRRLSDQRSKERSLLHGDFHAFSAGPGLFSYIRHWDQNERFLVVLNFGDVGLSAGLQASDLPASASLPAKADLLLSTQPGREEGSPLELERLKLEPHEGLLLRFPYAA
Procedure, shortened: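 H4 cells in sodium-free HEPES buffer (pH 7.4), 2 days after plating; glutamate release induced with 50 μM L-cystine plus compound (1% DMSO), 2 h at 37 °C. Supernatant glutamate measured by Amplex Red fluorescence; IC50/pIC50 derived between 1% DMSO and 50 μM erastin controls.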

system Xc^− [2] = molecular target: T1, system Xc^−; assay: [^14C]L-Cystine uptake assay; assay type: cell-based; set-up: endogenous in cells; host or cells: H4 cells; conditions: H4 cells, sodium-free HEPES buffer, 0.5 μM L-[14C]Cystine and 4.5 μM L-Cystine, 1 hour at 37° C.; for IC50: read-out: pIC50 [^14C] L-Cystine uptake assay (converted)
Procedure, shortened: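 H4 cells at 5×10^4 cells/well in sodium-free HEPES buffer were preincubated 15 min with compounds (1% DMSO). Uptake of 0.5 μM [14C]L-cystine plus 4.5 μM unlabelled L-cystine ran 1 hour at 37° C on scintillating plates. IC50 was set between 1% DMSO and 50 μM Erastin controls and expressed as pIC50.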

Structure (SMILES)	IC50 (system Xc^− [1]) [nM]	IC50 (system Xc^− [2]) [nM]	pIC50 Cystine-induced glutamate release assay (system Xc^− [1])	pIC50 [^14C] L-Cystine uptake assay (system Xc^− [2])
CC1C(=O)N(CC(=O)Nc2ccc(C(F)F)cc2)c2cc(N3CC(F)(F)C3)nc(F)c2-c2ccc(F)cc21 (single isomer, unassigned) [#291, 2-[3-(3,3-difluoroazetidin-1-yl)-1,9-difluoro-7-methyl-6-oxo-7H-pyrido[4,3-d][3]benzazepin-5-yl]-N-[4-(difluoromethyl)phenyl]acetamide]	< 15.8	15.8 to 39.8		
Cc1cc2c(c(F)n1)-c1cccnc1[C@@H](C)C(=O)N2CC(=O)Nc1ccc(Cl)c(F)c1F [#249, N-(4-chloro-2,3-difluoro-phenyl)-2-[(10R)-3-fluoro-5,10-dimethyl-9-oxo-4,8,12-triazatricyclo[9.4.0.0^2,7]pentadeca-1(15),2,4,6,11,13-hexaen-8-yl]acetamide]	39.8 to 100	100 to 501		
CC1C(=O)N(CC(=O)Nc2ccc(Cl)c(F)c2)c2cc(Cl)cc(F)c2-c2nnccc21 (single isomer, unassigned) [#383, 2-[9-chloro-11-fluoro-5-methyl-6-oxo-5H-pyridazino[4,3-d][1]benzazepin-7-yl]-N-(4-chloro-3-fluoro-phenyl)acetamide]	39.8 to 100	15.8 to 39.8		
Cc1cc2c(c(F)n1)-c1ncccc1CC(=O)N2CC(=O)Nc1ccc(C(F)(F)F)cc1 [#38, 2-(15-fluoro-13-methyl-9-oxo-3,10,14-triazatricyclo[9.4.0.0^2,7]pentadeca-1(11),2(7),3,5,12,14-hexaen-10-yl)-N-[4-(trifluoromethyl)phenyl]acetamide]	100 to 501	100 to 501		
O=C(CN1C(=O)Cc2ncccc2-c2c1cc(N1CC(F)(F)C1)nc2F)Nc1ccc(C(F)F)cc1 [#295, 2-[5-(3,3-difluoroazetidin-1-yl)-3-fluoro-9-oxo-4,8,12-triazatricyclo[9.4.0.0^2,7]pentadeca-1(15),2,4,6,11,13-hexaen-8-yl]-N-[4-(difluoromethyl)phenyl]acetamide]	< 15.8	< 15.8		
CC1C(=O)N(CC(=O)Nc2ccc(C(F)F)cc2)c2cc(N3[C@@H]4CCC[C@H]3C4)nc(F)c2-c2cccnc21 (single isomer, unassigned) [#287, 2-[5-(6-azabicyclo[3.1.1]heptan-6-yl)-3-fluoro-10-methyl-9-oxo-4,8,12-triazatricyclo[9.4.0.0^2,7]pentadeca-1(15),2,4,6,11,13-hexaen-8-yl]-N-[4-(difluoromethyl)phenyl]acetamide]	15.8 to 39.8	< 15.8		
O=C(CN1C(=O)Cc2ncccc2-c2c1cc(F)nc2F)Nc1ccc(C(F)(F)F)cc1 [#43, 2-(3,5-difluoro-9-oxo-4,8,12-triazatricyclo [9.4.0.0^2,7]pentadeca-1(11),2,4,6,12,14-hexaen-8-yl)-N-[4-(trifluoromethyl)phen-yl]acetamide]	39.8 to 100	100 to 501		
COc1nc2c(cc1CO)N(CC(=O)Nc1ccc(Cl)c(F)c1)C(=O)C(C)c1ccccc1-2 (centres unmarked) [#399, N-(4-chloro-3-fluoro-phenyl)-2-[3-(hydroxymethyl)-2-methoxy-7-methyl-6-oxo-7H-pyrido[3,2-d][3]benzazepin-5-yl]acetamide]	39.8 to 100	15.8 to 39.8		
CC1C(=O)N(CC(=O)Nc2ccc(C(F)F)cc2)c2cc(N3C[C@H]4C[C@@H](C3)C4(F)F)nc(F)c2-c2cccnc21 (single isomer, unassigned) [#290, 2-[5-(6,6-difluoro-3-azabicyclo[3.1.1]heptan-3-yl)-3-fluoro-10-methyl-9-oxo-4,8,12-triazatricyclo[9.4.0.0^2,7]pentadeca-1(11),2(7),3,5,12,14-hexaen-8-yl]-N-[4-(difluoromethyl)phenyl]acetamide]	39.8 to 100	15.8 to 39.8		
COc1cc2c(c(F)n1)-c1cccnc1C(C)C(=O)N2CC(=O)Nc1ccc(Cl)c(F)c1 (single isomer, unassigned) [#215, Enantiomer (10S) or (10R) of N-(4-chloro-3-fluoro-phenyl)-2-[3-fluoro-5-methoxy-10-methyl-9-oxo-4,8,12-triazatricyclo[9.4.0.0^2,7]pentadeca-1(15),2(7),3,5,11,13-hexaen-8-yl]acetamide]			C (about 7.40 < pIC50 ≤ about 7.80)	C (about 7.40 < pIC50 ≤ about 7.80)
Cc1cc2c(c(=O)n1C)-c1ccccc1C(C)C(=O)N2CC(=O)Nc1ccc(C(F)F)cc1 (single isomer, unassigned) [#175, N-[4-(difluoromethyl)phenyl]-2-(2,3,7-trimethyl-1,6-dioxo-7H-pyrido[4,3-d][3]benzazepin-5-yl)acetamide]	< 15.8	< 15.8		
CC1C(=O)N(CC(=O)Nc2ccc(C(F)(F)F)cc2)c2ccnc(F)c2-c2cccnc21 (single isomer, unassigned) [#187, enantiomer (10R) or (10S) of 2-[3-fluoro-10-methyl-9-oxo-4,8,12-triazatricyclo[9.4.0.0^2,7]pentadeca-1(11),2(7),3,5,12,14-hexaen-8-yl]-N-[4-(trifluoromethyl)phenyl]acetamide]	39.8 to 100	15.8 to 39.8		
Cc1cc2c(c(F)n1)-c1cccnc1[C@@H](C)C(=O)N2CC(=O)Nc1ccc(OC(F)F)cc1 [#139, N-[4-(difluoromethoxy)phenyl]-2-[(10R)-3-fluoro-5,10-dimethyl-9-oxo-4,8,12-triazatricyclo[9.4.0.0^2,7]pentadeca-1(11),2(7),3,5,12,14-hexaen-8-yl]acetamide]	15.8 to 39.8	15.8 to 39.8		
Cc1cc2c(cn1)-c1ccccc1CC(=O)N2CC(=O)Nc1ccc(C(F)(F)F)cc1 [#14, 2-(3-methyl-6-oxo-7H-pyrido[4,3-d][3]benzazepin-5-yl)-N-[4-(trifluoromethyl)-phenyl]acetamide]	100 to 501	< 15.8		
CC1C(=O)N(CC(=O)Nc2ccc(Cl)c(F)c2)c2cc(Cl)cc(F)c2-c2cnncc21 (single isomer, unassigned) [#385, 2-[9-chloro-11-fluoro-5-methyl-6-oxo-5H-pyridazino[4,5-d][1]benzazepin-7-yl]-N-(4-chloro-3-fluoro-phenyl)acetamide]	15.8 to 39.8	< 15.8		
CC1C(=O)N(CC(=O)Nc2ccc(C(F)F)cc2)c2cc(C#N)ccc2-c2cccnc21 (single isomer, unassigned) [#312, 2-[9-cyano-5-methyl-6-oxo-5H-pyrido[2,3-d][1]benzazepin-7-yl]-N-[4-(difluoromethyl)phenyl]acetamide]	< 15.8	39.8 to 100		
Cc1cc2c(c(=O)[nH]1)-c1ccccc1[C@@H](C)C(=O)N2CC(=O)Nc1ccc(C(F)(F)F)cc1 (single isomer, unassigned) [#205, Entnaiomer (7R) or (7S) of 2-[3,7-dimethyl-1,6-dioxo-2,7-dihydropyrido[4,3-d][3]benzazepin-5-yl]-N-[4-(trifluoromethyl)phenyl]acetamide]	15.8 to 39.8	< 15.8		
CC1C(=O)N(CC(=O)Nc2ccc(Cl)c(F)c2)c2cc(Cl)cc(F)c2-c2ccnnc21 (single isomer, unassigned) [#384, 2-[9-chloro-11-fluoro-5-methyl-6-oxo-5H-pyridazino[3,4-d][1]benzazepin-7-yl]-N-(4-chloro-3-fluoro-phenyl)acetamide]	< 15.8	< 15.8		
Cc1cc2c(cn1)-c1cccc(F)c1CC(=O)N2CC(=O)Nc1ccc(C(F)(F)F)cc1 [#35, 2-(8-fluoro-3-methyl-6-oxo-7H-pyrido[4,3-d][3]benzazepin-5-yl)-N-[4-(trifluoro-methyl)phenyl] acetamide]	39.8 to 100	15.8 to 39.8		
